“Also recorded” adds a separate entry of the source. Where two headings read alike, the source gives them in different places.
Legend:
[1] = test system: rat stomach; settings: in vivo, po, 5 mg/kg
[2] = test system: IL-1β; test: IL-1β protein expression by Western blotting; assay type: cell-based, human; settings: 100 μM compound; PMA 24 h then LPS 72 h; normalised to GAPDH
Experimental: THP-1 monocytes were exposed to 100 μM of the test compounds, activated with 25 nM PMA for 24 h followed by 100 ng/ml LPS for 72 h. At the end of the incubation period, cells were harvested, proteins were extracted and SDS-PAGE electrophoresis, blotting, and antibody probing were conducted as described previously. Primary rabbit polyclonal antibodies to IL-1β, procaspase-3, and GAPDH were obtained from Abcam (Cambridge, UK). Clarity Western ECL substrate (BioRad, Hercules, CA, USA) was used to obtain a chemiluminescence signal captured by a Chemidoc imaging system (BioRad, Hercules, CA, USA). Band density was estimated using ImageJ software (National Institutes of Health, Bethesda, MD) and normalised to the GAPDH band density as a loading control.

[3] = test system: cotton pellet-induced granuloma; test: Cotton pellet-induced granuloma assay (chronic inflammation model); settings: oral 5 mg/kg daily; pellets excised on 8th day; vs diclofenac sodium and celecoxib; 5 mg/kg
[4] = target: T1, 15-LOX (Glycine max, UniProt P08170); test: In vitro 15-LOX inhibition assay (lipoxygenase inhibitor screening kit, Cayman); assay type: biochemical; settings: mean of three determinations
T1 construct: purchased Cayman chemicals 760700
T1 sequence (P08170 1-839): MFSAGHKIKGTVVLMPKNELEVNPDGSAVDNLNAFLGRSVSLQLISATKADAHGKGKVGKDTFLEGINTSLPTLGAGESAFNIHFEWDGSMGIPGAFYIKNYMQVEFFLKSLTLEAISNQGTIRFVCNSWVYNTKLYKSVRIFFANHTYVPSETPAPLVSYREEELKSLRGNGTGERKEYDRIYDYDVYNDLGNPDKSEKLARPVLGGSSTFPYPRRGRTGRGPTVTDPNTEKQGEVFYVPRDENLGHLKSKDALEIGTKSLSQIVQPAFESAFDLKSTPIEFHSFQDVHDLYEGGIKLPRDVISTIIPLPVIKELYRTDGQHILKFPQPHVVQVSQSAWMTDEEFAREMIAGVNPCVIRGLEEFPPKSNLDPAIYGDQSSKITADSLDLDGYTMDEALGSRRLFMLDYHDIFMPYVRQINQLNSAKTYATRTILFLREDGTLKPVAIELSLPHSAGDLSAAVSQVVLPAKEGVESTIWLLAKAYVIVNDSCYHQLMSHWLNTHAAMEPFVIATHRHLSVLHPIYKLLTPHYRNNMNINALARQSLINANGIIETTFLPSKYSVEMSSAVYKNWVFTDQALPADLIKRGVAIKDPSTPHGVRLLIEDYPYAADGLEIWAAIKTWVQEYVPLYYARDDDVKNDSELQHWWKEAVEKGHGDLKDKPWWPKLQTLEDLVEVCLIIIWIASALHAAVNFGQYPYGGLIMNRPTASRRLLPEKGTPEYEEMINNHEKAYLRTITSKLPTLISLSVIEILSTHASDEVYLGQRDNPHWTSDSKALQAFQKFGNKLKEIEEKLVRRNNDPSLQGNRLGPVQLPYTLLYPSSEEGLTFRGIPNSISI
Experimental: (§1) Both assays were carried out in compliance with the manufacturer’s instructions and in accordance to prior studies[29]^,[33].
(§2) IC50 values (μM) and selectivity indices (SI) were calculated.

[5] = target: T2, human recombinant COX-2 (Homo sapiens, UniProt P35354); test: In vitro COX-2 inhibition assay (colorimetric COX inhibitor screening kit, Cayman); assay type: biochemical; settings: for SI (COX-1/ COX-2): IC50 (COX-1)/IC50 (COX-2); for IC50: mean of three determinations
T2 construct: purchased Cayman Chemicals Inc. 560131
T2 sequence (P35354 18-604): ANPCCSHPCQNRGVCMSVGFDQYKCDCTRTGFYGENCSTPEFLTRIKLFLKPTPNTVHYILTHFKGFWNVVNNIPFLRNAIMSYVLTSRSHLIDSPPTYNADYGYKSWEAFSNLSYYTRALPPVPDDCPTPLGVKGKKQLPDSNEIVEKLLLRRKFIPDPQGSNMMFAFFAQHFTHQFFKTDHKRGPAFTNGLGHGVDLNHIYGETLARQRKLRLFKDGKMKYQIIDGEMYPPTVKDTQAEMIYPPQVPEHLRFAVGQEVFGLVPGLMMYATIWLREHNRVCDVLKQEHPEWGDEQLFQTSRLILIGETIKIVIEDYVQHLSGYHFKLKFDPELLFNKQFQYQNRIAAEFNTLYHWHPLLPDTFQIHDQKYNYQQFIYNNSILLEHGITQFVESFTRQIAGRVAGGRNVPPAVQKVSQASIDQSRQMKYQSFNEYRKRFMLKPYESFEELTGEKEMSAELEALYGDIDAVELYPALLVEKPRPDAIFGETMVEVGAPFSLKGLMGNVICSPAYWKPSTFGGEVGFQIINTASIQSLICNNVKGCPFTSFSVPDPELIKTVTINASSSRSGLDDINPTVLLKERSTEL
Experimental: as §1, §2

[6] = target: T3, ovine COX-1 (Ovis aries, UniProt P05979); test: In vitro COX-1 inhibition assay (colorimetric COX inhibitor screening kit, Cayman); assay type: biochemical; settings: mean of three determinations
T3 construct: purchased Cayman Chemicals Inc. 560131
T3 sequence (P05979 25-600): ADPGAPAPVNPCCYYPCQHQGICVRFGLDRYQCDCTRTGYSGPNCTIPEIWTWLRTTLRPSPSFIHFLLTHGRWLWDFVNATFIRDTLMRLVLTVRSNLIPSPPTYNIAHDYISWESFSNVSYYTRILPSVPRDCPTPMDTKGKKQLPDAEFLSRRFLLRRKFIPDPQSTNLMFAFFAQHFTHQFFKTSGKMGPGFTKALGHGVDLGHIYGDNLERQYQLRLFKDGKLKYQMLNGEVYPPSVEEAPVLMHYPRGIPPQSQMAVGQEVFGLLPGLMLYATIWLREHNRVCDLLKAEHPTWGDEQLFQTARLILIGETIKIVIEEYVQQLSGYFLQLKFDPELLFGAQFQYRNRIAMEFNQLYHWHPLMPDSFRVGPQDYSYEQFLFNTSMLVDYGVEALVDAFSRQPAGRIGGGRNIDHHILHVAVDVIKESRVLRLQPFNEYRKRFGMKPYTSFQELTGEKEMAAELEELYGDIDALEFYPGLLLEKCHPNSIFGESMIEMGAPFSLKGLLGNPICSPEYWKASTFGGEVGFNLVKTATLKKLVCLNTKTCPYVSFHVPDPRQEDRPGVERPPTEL
Experimental: as §1, §2

[7] = test system: THP-1 cells; test: Monocyte-to-macrophage differentiation assay, M1 polarisation (PMA then LPS); assay type: cell-based, human; settings: for IC50: Homo sapiens, THP-1, 6 h pre-incubation, PMA 25 nM 24 h then LPS 100 ng/ml 72 h, MTS, read-out: IC50 inhibition of THP-1 monocyte differentiation into M1 macrophages
Experimental: (§3) Monocytes were cultured and differentiated as described previously. THP-1 cells (human acute monocytic leukaemia lineage, American Type Culture Collection, Manassas, VA) were seeded at a density of 20 × 10^5 cells/ml. A set of cells were exposed to 25 nM of phorbol myristate-acetate (PMA, Calbiochem, Darmstadt, Germany) for 24 h to drive differentiation. Another set was similarly treated with PMA followed by 100 ng/ml of lipopolysaccharide (LPS, invivogen, San Diego, CA, USA) for 72 h. After incubation, the supernatant was aspirated and the density of the adherent cells was estimated using MTS colorimetric cell viability kit (Abcam, Cambridge, UK). The inhibitory actions of different compounds on the differentiation process were evaluated by pre-incubation with different concentrations of each compound for 6 h. Cell viability after treatment was normalised to the reading after PMA exposure following a 6-h incubation with DMSO. All experiments were conducted in triplicates. A positive control for the effect of COX1/COX2 inhibition on monocyte-to-macrophage differentiation was obtained by treatment with diclofenac. IC50 values for each compound were determined by non-linear regression as the best fit values of the log [inhibitor] vs. response curve using GraphPad Prism software.

[8] = test system: rat stomach; test: Gastric ulcerogenic activity and histopathological examination; settings: stomach removed on 8th day of administration, 5 mg/kg oral
[9] = test system: PMA/LPS-stimulated THP-1 (M1 macrophages); test: Cytotoxicity assay on differentiated M1 macrophages (MTS); assay type: cell-based, human; settings: PMA 24 h, LPS 24 h, then compound 24 h; up to 100 μM
Experimental: To confirm that the previous observations were a consequence of interference of the compounds with the differentiation process rather than a reduction in monocyte viability, THP-1 monocytes were incubated with different concentrations of the compound for 30 h. No difference in cell viability was detected. Moreover, the cytotoxic effects of the drugs on differentiated macrophages were evaluated. Following the incubation of THP-1 cells with 25 nM PMA for 24 h and 100 ng/ml LPS for 24 h, the differentiated macrophages were treated with different concentrations of the compounds for 24 h. Cell viability was assessed using MTS colorimetric cell viability kit (Abcam, Cambridge, UK).

[10] = test system: THP-1 cells; test: Monocyte-to-macrophage differentiation assay, resting M0 macrophages (PMA only); assay type: cell-based, human; settings: data not shown
Experimental: as §3

Gross observation of isolated rat stomachs [1]	Structure (SMILES)	Histopathological examination of stomach gastric layers [1]	IL-1β expression in PMA/LPS-challenged THP-1 [2]	Inhibition of cotton pellet granuloma weight (in words) [3]	IC50 [4] [µM]	SI (COX-1/ COX-2) [5]	IC50 [5] [µM]	IC50 [6] [µM]	IC50 [7] [µM]	Inhibition of THP-1 differentiation into M1 macrophages (in words) ([7]; PMA then LPS, diclofenac as reference)	Gross observation of isolated rat stomachs [8]	Histopathological examination of stomach gastric layers ([8]; H&E, 5 mg/kg)	M1 macrophage cell viability [9]	IC50 for M0 macrophage differentiation (in words) [10]
normal stomach texture	Cc1ccc(-c2cc(C(F)(F)F)nn2-c2ccc(S(N)(=O)=O)cc2)cc1 [Celecoxib]	no ulceration with normal gastro-esophageal junction												
	COc1ccc(-c2nn(-c3ccccc3)cc2/C=C2\SC(N3CCOCC3)=NC2=O)cc1 [Compound 8, (Z)-5-((3-(4-methoxyphenyl)-1-phenyl-1H-pyrazol-4-yl)methylene)-2-morpholinothiazol-4(5H)-one]		attenuating IL-1β production	superior anti-inflammatory activity, when compared to diclofenac and celecoxib; also recorded: increased inhibition of granuloma weight in comparison to both celecoxib and diclofenac	4.64	113	0.11	12.4	347					
	O=C1N=C(N2CCOCC2)S/C1=C\c1cn(-c2ccccc2)nc1-c1ccccc1 [Compound 4, (Z)-5-((1,3-diphenyl-1H-pyrazol-4-yl)methylene)-2-morpholinothiazol-4(5H)-one]		attenuating IL-1β production		4.63	80	0.14	11.3	11.3	potent inhibitory effects on monocyte-to-macrophage differentiation; also recorded: higher potency compared to diclofenac	variable levels of hyperaemia without gross ulceration	esophago-gastric inflammation; also recorded: gastro-esophageal inflammatory infiltrates	tended to slightly decrease	
	O=C(O)Cc1ccccc1Nc1c(Cl)cccc1Cl [Diclofenac Na, Diclofenac sodium, reference compound]								101		normal stomach texture			comparable IC50 to that observed for the M1 macrophage differentiation

From paper PMC7901699, “Challenging inflammatory process at molecular, cellular and in vivo levels via some new pyrazolyl thiazolones” (Journal of Enzyme Inhibition and Medicinal Chemistry, 2021)
